Data: ChEMBL document CHEMBL5143577, “Development of a degrader against oncogenic fusion protein FGFR3-TACC3” (Bioorg Med Chem Lett, 2022)
Activity calls are given as the source filed them. The calls are words filed in the database; no cut-off is given here.

What was measured:
RT-4 [1] = test: Sniper activity at FGFR3-TACC3 in human RT4 cells assessed as decrease in FGFR3-TACC3 protein level at 3 uM after 6 hrs; format: cell-based
RT-4 [2] = test: Antiproliferative activity against human RT-4 cells expressing FGFR3-TACC3 at 3 uM measured after 72 hrs by WST assay; format: functional, cell-based
RT-4 [3] = test: Sniper activity at FGFR3-TACC3 in human RT4 cells assessed as decrease in FGFR3-TACC3 protein level at 3 uM after 6 hrs in presence of siRNA XIAP; format: cell-based
RT-4 [4] = test: Sniper activity at FGFR3-TACC3 in human RT4 cells assessed as decrease in FGFR3-TACC3 protein level at 30 uM after 6 hrs; format: cell-based

With `CN[C@@H](C)C(=O)N[C@H](C(=O)N1C[C@@H](Oc2cccc(OCCOCCOCCOCCNC(=O)c3ccc(-c4nc(CNc5nccc(NCC(C)C)n5)cs4)cc3)c2)C[C@H]1C(=O)N[C@@H]1CCCc2ccccc21)C1CCCCC1` the Activity (RT-4 [1]) was “Active”.

For `CN[C@@H](C)C(=O)N[C@H](C(=O)N1C[C@@H](Oc2cccc(OCCOCCOCCOCCOCCNC(=O)c3ccc(-c4nc(CNc5nccc(NCC(C)C)n5)cs4)cc3)c2)CC1C(=O)N[C@@H]1CCCc2ccccc21)C1CCCCC1` (some centres not stated), the Activity (RT-4 [1]) was “Active”.

`CN[C@@H](C)C(=O)N[C@H](C(=O)N1CCC[C@H]1c1nc(C(=O)c2cccc(OCCOCCOCCOCCNC(=O)c3ccc(-c4nc(CNc5nccc(NCC(C)C)n5)cs4)cc3)c2)cs1)C1CCCCC1` was tested, and the Activity (RT-4 [1]) was “Active”.

For `CN[C@@H](C)C(=O)N[C@H](C(=O)N1CCC[C@H]1c1nc(C(=O)c2cccc(OCCOCCOCCNC(=O)c3ccc(-c4nc(CNc5nccc(NCC(C)C)n5)cs4)cc3)c2)cs1)C1CCCCC1`, the Activity (RT-4 [2]) was “Active”, the Activity (RT-4 [1]) was “Active” and the Activity (RT-4 [3]) was “Active”.

With `CC(C)CNc1ccnc(NCc2csc(-c3ccc(C(=O)NCCOCCOCCOCCNC(=O)[C@H](CC(C)C)NC(=O)[C@@H](O)[C@H](N)Cc4ccccc4)cc3)n2)n1` the Activity (RT-4 [4]) was “Active”.
